Data set [1] is described as follows: Cytotoxicity against HEK-Blue hTLR8 cells assessed as reduction in cell viability at 25 to 50 uM incubated for 24 hrs by MTT assay. It counts as toxicity, cell-based. The following applies: human, hek-blue htlr8, 24 h, dose 25-50 µM. (In general: Tetrazolium dyes change colour on reduction, which living cells bring about.)
A further data set relates to THP-1. Description: Cytotoxicity against human THP-1 cells assessed as reduction in cell viability upto 100 uM incubated for 24 hrs by MTT assay. It counts as toxicity, cell-based. Particulars: thp-1, 24 h.
Data set [2] can be described thus: Cytotoxicity against human PBMC cells assessed as reduction in cell viability upto 100 uM incubated for 24 hrs by LDH release assay. The format is toxicity, cell-based. In general terms: LDH in the medium is a marker of cell lysis.
The test system of data set [3] is T1, Toll-like receptor 8 (Homo sapiens), Q9NR97 [F495L].
T1 sequence (whole entry): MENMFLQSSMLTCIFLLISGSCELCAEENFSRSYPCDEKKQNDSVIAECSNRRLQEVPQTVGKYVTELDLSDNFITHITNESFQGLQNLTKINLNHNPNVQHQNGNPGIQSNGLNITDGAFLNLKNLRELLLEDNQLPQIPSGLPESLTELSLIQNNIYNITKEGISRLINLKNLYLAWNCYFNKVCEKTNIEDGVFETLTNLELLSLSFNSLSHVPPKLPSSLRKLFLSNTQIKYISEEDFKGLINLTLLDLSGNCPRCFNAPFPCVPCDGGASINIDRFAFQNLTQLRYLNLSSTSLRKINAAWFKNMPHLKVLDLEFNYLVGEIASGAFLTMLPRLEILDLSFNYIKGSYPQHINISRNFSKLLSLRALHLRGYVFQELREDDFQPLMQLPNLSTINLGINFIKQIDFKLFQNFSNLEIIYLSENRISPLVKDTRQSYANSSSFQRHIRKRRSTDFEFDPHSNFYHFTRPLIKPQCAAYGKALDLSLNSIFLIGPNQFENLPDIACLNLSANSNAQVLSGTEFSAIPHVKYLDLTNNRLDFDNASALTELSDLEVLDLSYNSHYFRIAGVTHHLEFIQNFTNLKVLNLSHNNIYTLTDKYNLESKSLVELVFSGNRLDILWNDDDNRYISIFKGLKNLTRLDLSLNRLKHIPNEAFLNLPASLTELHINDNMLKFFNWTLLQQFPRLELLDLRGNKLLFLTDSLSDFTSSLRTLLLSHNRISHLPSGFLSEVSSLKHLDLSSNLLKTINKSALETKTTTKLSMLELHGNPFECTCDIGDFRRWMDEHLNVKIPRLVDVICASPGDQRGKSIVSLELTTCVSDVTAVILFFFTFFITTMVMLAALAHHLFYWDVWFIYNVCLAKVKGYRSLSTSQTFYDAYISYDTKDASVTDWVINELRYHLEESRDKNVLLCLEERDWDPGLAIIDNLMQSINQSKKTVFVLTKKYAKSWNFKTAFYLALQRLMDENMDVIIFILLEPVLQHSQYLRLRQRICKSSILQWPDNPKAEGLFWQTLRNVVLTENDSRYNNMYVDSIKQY
As to the kind of experiment: Antagonist activity at human TLR8 F495L mutant transfected in HEK293 cells assessed as inhibition of TL8-506 induced NFkappaB activation at 1 uM preincubated with compound for 1 hrs followed by TL8-506 addition and measured after 24 hrs by Quanti-blue reagent based SEAP reporter assay. The format is cell-based. The following applies: filed as antagonist. Background: In a reporter assay the amount or activity of a reporter protein is the signal.

Data set [4] has the same test system. As to the kind of experiment: Antagonist activity at human TLR8 F495L mutant transfected in HEK293 cells assessed as inhibition of CL075 induced NFkappaB activation at 1 uM preincubated with compound for 1 hrs followed by CL075 addition and measured after 24 hrs by Quanti-blue reagent based SEAP reporter assay. It counts as cell-based. Particulars: filed as antagonist.

Activity calls are given as the source filed them. The rule behind the calls is not given here.

In the case of `COc1cc(C(=O)NCC(c2ccc(C)cc2)N(C)C)ccc1OCc1c(C)noc1C` (configuration not stated), the Activity result (in data set [1]; in the data set on THP-1; in data set [2]) was “Non-toxic” throughout.
Turning to `N#Cc1ccc(N2C[C@H](N)C[C@H](C(F)(F)F)C2)c2cccnc12`, the outcome in data set [3] and in data set [4] was Active.
As to `Cc1noc(C)c1COc1ccc(C(=O)NCC(c2ccco2)N(C)C)cc1` (configuration not stated), the Activity entry in data set [1] is listed as “Non-toxic”.
Consider `COc1cc(C(=O)NCCN2CCCC2)ccc1OCc1c(C)noc1C`, for which, in data set [1], the Activity entry is on record as “Non-toxic”.

The values are drawn from ChEMBL document CHEMBL6153139, “Discovery of Novel Isoxazole-Based Small-Molecule Toll-Like Receptor 8 Antagonists” (J Med Chem, 2025).
